Results taken from article PMC5983484, “A receptor tyrosine kinase ROR1 inhibitor (KAN0439834) induced significant apoptosis of pancreatic cells which was enhanced by erlotinib and ibrutinib” (PLoS ONE, 2018).

Target: ROR1 (Homo sapiens, UniProt Q01973)
Assay: Western blot of pROR1 in PaCa-2 cells ([…] h), confirmed by human phospho-RTK array
Format: cell-based

ROR1, sequence (Q01973 30-937): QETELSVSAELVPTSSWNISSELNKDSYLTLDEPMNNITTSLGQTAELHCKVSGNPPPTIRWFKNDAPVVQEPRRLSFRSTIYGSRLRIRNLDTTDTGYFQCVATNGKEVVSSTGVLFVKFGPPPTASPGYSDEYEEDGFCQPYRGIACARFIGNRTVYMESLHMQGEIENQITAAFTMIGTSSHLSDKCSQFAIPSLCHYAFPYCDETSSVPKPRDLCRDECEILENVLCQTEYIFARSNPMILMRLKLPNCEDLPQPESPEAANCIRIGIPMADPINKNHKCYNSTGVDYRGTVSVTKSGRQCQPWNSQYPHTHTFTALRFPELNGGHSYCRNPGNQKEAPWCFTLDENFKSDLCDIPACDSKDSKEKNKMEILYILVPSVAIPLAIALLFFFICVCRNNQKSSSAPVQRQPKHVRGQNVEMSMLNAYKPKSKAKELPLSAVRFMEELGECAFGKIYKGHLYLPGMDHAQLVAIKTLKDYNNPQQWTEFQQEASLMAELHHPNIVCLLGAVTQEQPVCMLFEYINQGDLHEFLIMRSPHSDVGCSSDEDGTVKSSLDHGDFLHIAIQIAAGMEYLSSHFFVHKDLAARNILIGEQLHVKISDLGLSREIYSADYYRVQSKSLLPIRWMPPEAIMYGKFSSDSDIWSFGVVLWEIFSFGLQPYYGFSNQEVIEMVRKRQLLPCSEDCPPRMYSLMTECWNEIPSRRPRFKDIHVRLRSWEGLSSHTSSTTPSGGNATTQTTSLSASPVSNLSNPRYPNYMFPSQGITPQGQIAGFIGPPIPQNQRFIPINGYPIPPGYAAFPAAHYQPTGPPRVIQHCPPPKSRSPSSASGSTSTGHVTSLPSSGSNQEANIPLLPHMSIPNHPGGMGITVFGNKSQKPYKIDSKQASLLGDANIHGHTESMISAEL

Question: For KAN0439834, which IC50 is on record?
Answer: < 100 nM
